This note sets out measurements from US8445674B2, “Heterocyclyl compounds” (Hoffmann-La Roche Inc, priority 2009, dated 2013).

In this assay the target is T1, human chemokine receptor 2 isoform B (Homo sapiens, UniProt P41597).
T1 construct: host or cells: CHOK1-CCR2B-A5 cells (CHO-K1)
T1 sequence (P41597 1-360 isoform P41597-2): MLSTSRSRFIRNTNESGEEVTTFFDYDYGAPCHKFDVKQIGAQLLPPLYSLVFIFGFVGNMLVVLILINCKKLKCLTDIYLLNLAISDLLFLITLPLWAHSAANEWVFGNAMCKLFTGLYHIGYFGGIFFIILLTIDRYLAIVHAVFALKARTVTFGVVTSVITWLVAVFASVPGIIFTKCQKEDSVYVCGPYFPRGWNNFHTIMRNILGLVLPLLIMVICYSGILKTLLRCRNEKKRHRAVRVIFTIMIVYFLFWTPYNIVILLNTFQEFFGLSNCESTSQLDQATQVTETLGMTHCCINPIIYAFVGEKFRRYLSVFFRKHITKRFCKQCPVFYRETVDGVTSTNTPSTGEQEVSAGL
Kind of assay: Calcium mobilization assay (FLIPR, antagonist activity against MCP-1). The class given is cell-based. The conditions noted are these: Ca mobilisation assay, CHOK1-CCR2B-A5 cells, inhibition of calcium increase induced by 20 nM MCP-1. A digest of the protocol: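 CHOK1 cells stably overexpressing human CCR2B, loaded with 4 μM Fluo-4 for 2 h at 30° C, compounds added and agonist signal read by FLIPR for 80 s. After 20-30 min at 30° C, 20 nM MCP-1 was added and fluorescence read again. IC50 is 50% inhibition of specific calcium increase (max minus basal).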
For orientation: A change in cytosolic calcium serves as a functional read-out for many receptors and channels.

Consider `C[C@H]1C(=O)N(CCC(=O)N2CCOCC2)CCN1C(=O)Nc1ccc(Cl)c(Cl)c1` [Example 22, (S)-2-Methyl-4-(3-morpholin-4-yl-3-oxo-propyl)-3-oxo-piperazine-1-carboxylic acid (3,4-dichloro-phenyl)-amide], for which the IC50 was determined as 3070 nM. On to `C[C@H]1C(=O)N(CC(O)CC(=O)N2CCC3(CC3)[C@H](O)C2)CCN1C(=O)Nc1ccc(C(F)(F)F)c(C(F)(F)F)c1` (stereo partly drawn) [Example 47, (S)-4-[(R,S)-2-Hydroxy-4-((S)-4-hydroxy-6-aza-spiro[2.5]oct-6-yl)-4-oxo-butyl]-2-methyl-3-oxo-piperazine-1-carboxylic acid (3,4-bis-trifluoromethyl-phenyl)-amide], for which the IC50 was 5.4 nM.

Consider `C[C@@H]1CN(CCC(=O)N2CCC3(CC3)[C@H](O)C2)C(=O)CCN1C(=O)/C=C/c1cccc(Cl)c1` [Example 104, (R)-1-[(E)-3-(3-Chloro-phenyl)-acryloyl]-4-[3-((S)-4-hydroxy-6-aza-spiro[2.5]oct-6-yl)-3-oxo-propyl]-2-methyl-[1,4]diazepan-5-one], for which the IC50 was found to be 100 nM. Take `NC(=O)C1CCN(C(=O)CCN2CCN(C(=O)/C=C/c3ccc(Cl)c(Cl)c3)CCC2=O)CC1` [Example 94, 1-(3-{4-[(E)-3-(3,4-Dichloro-phenyl)-acryloyl]-7-oxo-[1,4]diazepan-1-yl}-propionyl)-piperidine-4-carboxylic acid amide]: the IC50 amounted to 1800 nM. Take `C[C@H]1C(=O)N(CCC(=O)N2CC[C@](C)(CO)[C@H](O)C2)CCN1C(=O)Nc1ccc(Cl)c(Cl)c1` (mixture of isomers) [Example 21, (S)-4-[3-((3SR,4RS)-3-Hydroxy-4-hydroxymethyl-4-methyl-piperidin-1-yl)-3-oxo-propyl]-2-methyl-3-oxo-piperazine-1-carboxylic acid (3,4-dichloro-phenyl)-amide]: the IC50 was 844 nM.

As to `O=C(/C=C/c1ccc(Cl)c(Cl)c1)N1CCC(=O)N(CCC(=O)N2CCC(O)CC2)CC1` [Example 1, 1-[(E)-3-(3,4-Dichloro-phenyl)-acryloyl]-4-[3-(4-hydroxy-piperidin-1-yl)-3-oxo-propyl]-[1,4]diazepan-5-one], the IC50 was determined as 2660 nM. Take `C[C@H]1C(=O)N(CCCC(=O)N2CCC3(CC3)[C@H](O)C2)CCN1C(=O)Nc1ccc(Cl)c(OC(F)(F)F)c1` [Example 35, (S)-4-[4-((S)-4-Hydroxy-6-aza-spiro[2.5]oct-6-yl)-4-oxo-butyl]-2-methyl-3-oxo-piperazine-1-carboxylic acid (4-chloro-3-trifluoromethoxy-phenyl)-amide]: the IC50 worked out at 4.9 nM. Turning to `C[C@H]1C[C@H](O)CN(C(=O)CCN2CCN(C(=O)Nc3ccc(Cl)c(Cl)c3)[C@@H](C)C2=O)C1` [Example 19, (S)-4-[3-((3S,5S)-3-Hydroxy-5-methyl-piperidin-1-yl)-3-oxo-propyl]-2-methyl-3-oxo-piperazine-1-carboxylic acid (3,4-dichloro-phenyl)-amide], the IC50 stood at 3830 nM. On to `C[C@@H]1CN(CCCC(=O)N2CCC3(CC3)[C@H](O)C2)C(=O)CCN1c1ccc(Cl)c(C(F)(F)F)c1` [Example 126, (R)-1-(4-Chloro-3-trifluoromethyl-phenyl)-4-[4-((S)-4-hydroxy-6-aza-spiro[2.5]oct-6-yl)-4-oxo-butyl]-2-methyl-[1,4]diazepan-5-one], for which the half-maximal inhibitory concentration (IC50) was determined as 2670 nM. With `C[C@H]1C(=O)N(CCCC(=O)N2CCC3(CC3)[C@H](O)C2)[C@H](C(N)=O)CN1C(=O)Nc1ccc(C(F)(F)F)c(C(F)(F)F)c1` [Example 149, (3S,6S)-4-[4-((S)-4-Hydroxy-6-aza-spiro[2.5]oct-6-yl)-4-oxo-butyl]-6-methyl-5-oxo-piperazine-1,3-dicarboxylic acid 3-amide 1-[(3,4-bis-trifluoromethyl-phenyl)-amide]], the IC50 was 2.2 nM. For `C[C@H]1C(=O)N(CCCC(=O)N2CCC3(CC3)[C@H](O)C2)[C@@H](C(N)=O)CN1C(=O)Nc1ccc(C(F)(F)F)c(Cl)c1` [Example 148, (3R,6S)—N1-(3-chloro-4-(trifluoromethyl)phenyl)-4-(4-((S)-4-hydroxy-6-azaspiro[2.5]octan-6-yl)-4-oxobutyl)-6-methyl-5-oxopiperazine-1,3-dicarboxamide], the IC50 stood at 30.5 nM.

`C[C@H]1C(=O)N([C@@H](CO)CCC(=O)N2CCC3(CC3)[C@H](O)C2)CCN1C(=O)Nc1ccc(C(F)(F)F)c(Cl)c1` [Example 146, (S)-4-[(R)-4-((S)-4-Hydroxy-6-aza-spiro[2.5]oct-6-yl)-1-hydroxymethyl-4-oxo-butyl]-2-methyl-3-oxo-piperazine-1-carboxylic acid (3-chloro-4-trifluoromethyl-phenyl)-amide]: the IC50 came out at 157 nM. Regarding `O=C(/C=C/c1ccc(Cl)c(Cl)c1)N1CCC(=O)N(CC(=O)N2CCC3(CCCC3)CC2)CC1` [Example 96, 4-[2-(8-Aza-spiro[4.5]dec-8-yl)-2-oxo-ethyl]-1-[(E)-3-(3,4-dichloro-phenyl)-acryloyl]-[1,4]diazepan-5-one], the IC50 was 3210 nM.

The IC50 is the concentration that gives 50% inhibition.
